# From PMC2874192 (Cancer research, 2010)
# Legend:
# [1] = system: U87 and U87-stb-CXCR4 glioblastoma xenografts; assay type: in vivo; conditions: whole body image at 90 min
# [2] = system: U87 and U87-stb-CXCR4 glioblastoma xenografts; experiment: Ex vivo biodistribution in subcutaneous brain tumor model; design: species or system NOD/SCID mice; conditions: 740 kBq, 90 min after injection
# [3] = no reference given; cited from earlier work
# CXCR4 receptor = conditions: Cu-bound vs unbound AMD3100; cited from earlier work
# [4] = humans, within 24 h, primarily through kidneys; cited from earlier work
Compound,distribution of radiotracer (PET) [1],radioactivity distribution (ex vivo biodistribution) [2],plasma protein bound [3] [%],increase of affinity to the CXCR4 receptor by Cu bound to the cyclam (CXCR4 receptor) [fold],drug eliminated as parent [4] [%]
[Cl][64Cu][Cl] [[^64Cu]CuCl2],uniform distribution,uniform,–,–,–
c1cc(CN2CCCNCCNCCCNCC2)ccc1CN1CCCNCCNCCCNCC1 [AMD3100],–,–,~58,6,~70
